# Data published in PubChem BioAssay (NCI).
#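 48-hour exposure; five concentrations; linearly interpolated endpoints. The concentration for full growth arrest is given as TGI.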
# How the values were obtained:
# Assay in all cases: growth of human tumour cells (NCI), 48 h
# MDA-MB-231 breast = tested on: MDA-MB-231 breast
# UACC-257 melanoma = tested on: UACC-257 melanoma
# NCI-H226 lung = tested on: NCI-H226 lung
# U251 CNS = tested on: U251 CNS
# A498 renal = tested on: A498 renal
# HCC-2998 colon = tested on: HCC-2998 colon
# OVCAR-5 ovarian = tested on: OVCAR-5 ovarian
# HT29 colon = tested on: HT29 colon
# EKVX NSCLC = tested on: EKVX NSCLC
# HL-60(TB) leukemia = tested on: HL-60(TB) leukemia
# MDA-MB-435 = tested on: MDA-MB-435
# TK-10 renal = tested on: TK-10 renal
# HOP-62 NSCLC = tested on: HOP-62 NSCLC
# SF-295 CNS = tested on: SF-295 CNS
# NCI/ADR-RES ovarian = tested on: NCI/ADR-RES ovarian
# NCI-H460 lung = tested on: NCI-H460 lung
# T-47D breast = tested on: T-47D breast
# RXF 393 renal = tested on: RXF 393 renal
# ACHN renal = tested on: ACHN renal
# SK-OV-3 ovarian = tested on: SK-OV-3 ovarian
# 786-0 renal = tested on: 786-0 renal
# HS 578T breast = tested on: HS 578T breast
# K-562 leukemia = tested on: K-562 leukemia
# DU-145 prostate = tested on: DU-145 prostate
# SK-MEL-5 melanoma = tested on: SK-MEL-5 melanoma
# OVCAR-4 ovarian = tested on: OVCAR-4 ovarian
# CAKI-1 renal = tested on: CAKI-1 renal
# MCF7 breast = tested on: MCF7 breast
# OVCAR-3 ovarian = tested on: OVCAR-3 ovarian
# HCT-116 colon = tested on: HCT-116 colon
# SF-268 CNS = tested on: SF-268 CNS
# RPMI-8226 leukemia = tested on: RPMI-8226 leukemia
# MDA-N = tested on: MDA-N
# HCT-15 colon = tested on: HCT-15 colon
# PC-3 prostate = tested on: PC-3 prostate
# SK-MEL-28 melanoma = tested on: SK-MEL-28 melanoma
# HOP-92 NSCLC = tested on: HOP-92 NSCLC
# NCI-H23 lung = tested on: NCI-H23 lung
# KM12 colon = tested on: KM12 colon
# OVCAR-8 ovarian = tested on: OVCAR-8 ovarian
# SK-MEL-2 melanoma = tested on: SK-MEL-2 melanoma
# IGROV1 ovarian = tested on: IGROV1 ovarian
# LOX IMVI melanoma = tested on: LOX IMVI melanoma
# SF-539 CNS = tested on: SF-539 CNS
# SR leukemia = tested on: SR leukemia
# NCI-H522 lung = tested on: NCI-H522 lung
# M14 melanoma = tested on: M14 melanoma
# UO-31 renal = tested on: UO-31 renal
# CCRF-CEM leukemia = tested on: CCRF-CEM leukemia
# MOLT-4 leukemia = tested on: MOLT-4 leukemia
# SW-620 colon = tested on: SW-620 colon
# MALME-3M melanoma = tested on: MALME-3M melanoma
# SNB-19 CNS = tested on: SNB-19 CNS
# A549 NSCLC = tested on: A549 NSCLC
# SNB-75 CNS = tested on: SNB-75 CNS
# COLO 205 colon = tested on: COLO 205 colon
# UACC-62 melanoma = tested on: UACC-62 melanoma
# SN12C renal = tested on: SN12C renal
smiles,measurement,setting,value
CC1=CC(=O)CC(C)(C)C1/C=C/C(C)=C/C=C/C(C)=C/C=C/C=C(C)/C=C/C=C(C)/C=C/C1=C(C)CC(O)CC1(C)C (stereo not drawn),TGI,MDA-MB-231 breast,> 100 µM
same,TGI,UACC-257 melanoma,> 100 µM
same,TGI,NCI-H226 lung,> 100 µM
same,TGI,U251 CNS,> 100 µM
same,TGI,A498 renal,> 100 µM
same,TGI,HCC-2998 colon,99.1 µM
same,TGI,OVCAR-5 ovarian,> 100 µM
same,TGI,HT29 colon,> 100 µM
same,TGI,EKVX NSCLC,> 100 µM
same,TGI,HL-60(TB) leukemia,> 100 µM
same,TGI,MDA-MB-435,84.8 µM
same,TGI,TK-10 renal,> 100 µM
same,TGI,HOP-62 NSCLC,> 100 µM
same,TGI,SF-295 CNS,> 100 µM
same,TGI,NCI/ADR-RES ovarian,> 100 µM
same,TGI,NCI-H460 lung,> 100 µM
same,TGI,T-47D breast,> 100 µM
same,TGI,RXF 393 renal,52.7 µM
same,TGI,ACHN renal,74.3 µM
same,TGI,SK-OV-3 ovarian,> 100 µM
same,TGI,786-0 renal,72.5 µM
same,TGI,HS 578T breast,> 100 µM
same,TGI,K-562 leukemia,27.1 µM
same,TGI,DU-145 prostate,> 100 µM
same,TGI,SK-MEL-5 melanoma,> 100 µM
same,TGI,OVCAR-4 ovarian,> 100 µM
same,TGI,CAKI-1 renal,> 100 µM
same,TGI,MCF7 breast,45.3 µM
same,TGI,OVCAR-3 ovarian,72.1 µM
same,TGI,HCT-116 colon,37.4 µM
same,TGI,SF-268 CNS,> 100 µM
same,TGI,RPMI-8226 leukemia,27.9 µM
same,TGI,MDA-N,> 100 µM
same,TGI,HCT-15 colon,73.4 µM
same,TGI,PC-3 prostate,> 100 µM
same,TGI,SK-MEL-28 melanoma,> 100 µM
same,TGI,HOP-92 NSCLC,70.9 µM
same,TGI,NCI-H23 lung,> 100 µM
same,TGI,KM12 colon,> 100 µM
same,TGI,OVCAR-8 ovarian,> 100 µM
same,TGI,SK-MEL-2 melanoma,> 100 µM
same,TGI,IGROV1 ovarian,> 100 µM
same,TGI,LOX IMVI melanoma,> 100 µM
same,TGI,SF-539 CNS,> 100 µM
same,TGI,SR leukemia,4.52 µM
same,TGI,NCI-H522 lung,72.7 µM
same,TGI,M14 melanoma,> 100 µM
same,TGI,UO-31 renal,> 100 µM
same,TGI,CCRF-CEM leukemia,> 100 µM
same,TGI,MOLT-4 leukemia,1.6 µM
same,TGI,SW-620 colon,33.2 µM
CC(C)(C)c1cc2c(O)c(c1)Cc1cc(C(C)(C)C)cc(c1O)Cc1cc(C(C)(C)C)cc(c1O)Cc1cc(C(C)(C)C)cc(c1O)Cc1cc(C(C)(C)C)cc(c1O)Cc1cc(C(C)(C)C)cc(c1O)Cc1cc(C(C)(C)C)cc(c1O)Cc1cc(C(C)(C)C)cc(c1O)C2,TGI,MDA-MB-231 breast,> 50 µM
same,TGI,UACC-257 melanoma,> 50 µM
same,TGI,NCI-H226 lung,> 50 µM
same,TGI,MALME-3M melanoma,> 50 µM
same,TGI,U251 CNS,> 50 µM
same,TGI,A498 renal,> 50 µM
same,TGI,SNB-19 CNS,> 50 µM
same,TGI,HCC-2998 colon,> 50 µM
same,TGI,OVCAR-5 ovarian,> 50 µM
same,TGI,HT29 colon,> 50 µM
same,TGI,EKVX NSCLC,> 50 µM
same,TGI,HL-60(TB) leukemia,> 50 µM
same,TGI,MDA-MB-435,> 50 µM
same,TGI,A549 NSCLC,> 50 µM
same,TGI,TK-10 renal,> 50 µM
same,TGI,HOP-62 NSCLC,> 50 µM
same,TGI,SF-295 CNS,> 50 µM
same,TGI,SNB-75 CNS,> 50 µM
same,TGI,NCI/ADR-RES ovarian,> 50 µM
same,TGI,NCI-H460 lung,> 50 µM
same,TGI,T-47D breast,> 50 µM
same,TGI,RXF 393 renal,> 50 µM
same,TGI,ACHN renal,> 50 µM
same,TGI,COLO 205 colon,> 50 µM
same,TGI,SK-OV-3 ovarian,> 50 µM
same,TGI,786-0 renal,> 50 µM
same,TGI,HS 578T breast,> 50 µM
same,TGI,K-562 leukemia,> 50 µM
same,TGI,DU-145 prostate,> 50 µM
same,TGI,SK-MEL-5 melanoma,> 50 µM
same,TGI,OVCAR-4 ovarian,> 50 µM
same,TGI,UACC-62 melanoma,> 50 µM
same,TGI,CAKI-1 renal,> 50 µM
same,TGI,MCF7 breast,> 50 µM
same,TGI,OVCAR-3 ovarian,> 50 µM
same,TGI,HCT-116 colon,> 50 µM
same,TGI,SF-268 CNS,> 50 µM
same,TGI,RPMI-8226 leukemia,> 50 µM
same,TGI,MDA-N,> 50 µM
same,TGI,HCT-15 colon,> 50 µM
same,TGI,SN12C renal,> 50 µM
same,TGI,PC-3 prostate,> 50 µM
same,TGI,SK-MEL-28 melanoma,> 50 µM
same,TGI,HOP-92 NSCLC,> 50 µM
same,TGI,NCI-H23 lung,> 50 µM
same,TGI,KM12 colon,> 50 µM
same,TGI,OVCAR-8 ovarian,> 50 µM
same,TGI,SK-MEL-2 melanoma,> 50 µM
same,TGI,IGROV1 ovarian,> 50 µM
same,TGI,SF-539 CNS,> 50 µM
same,TGI,SR leukemia,> 50 µM
same,TGI,NCI-H522 lung,> 50 µM
same,TGI,M14 melanoma,> 50 µM
same,TGI,UO-31 renal,> 50 µM
same,TGI,CCRF-CEM leukemia,> 50 µM
same,TGI,MOLT-4 leukemia,> 50 µM
same,TGI,SW-620 colon,> 50 µM
